Here are results for two compounds from patent publication US20200289527A1, “FORMULATION CONTAINING A-DECARBONIZED-5a ANDROSTANE COMPOUND FOR INCREASING WHITE BLOOD CELL AND USE THEREOF” (priority 2017, published 2020).

Data set [1] relates to white blood cells in mice bearing Lewis lung tumor. From the text: The vigorously growing tumor cells were taken and prepared into cell suspension with a concentration of about 5-10×10^6/ml by homogenization under sterile condition.
At the beginning of the experiment, 10 mice were randomly sampled for blood collection by posterior orbital venous plexus puncture, and an automatic blood cell analyzer (HEMAVET-950) was used to conduct the routine blood test. Then the blood was collected for the routine blood test by the same method on the 8th and 12th days after the last administration of cyclophosphamide.

Data set [2] deals with white blood cells in tumor patients. Particulars: for Effect of increasing WBC (C1/Czs): all 10 subjects, 15-45 mg total daily dose, Day 0 = 100%; for average extent of increasing white blood cells: average of subjects. The procedure:
Blood was collected on the day before the administration, and the routine blood test was conducted to determine the number of white blood cells (Czs) before the subjects were treated with the medicine of the present invention.
10 subjects took ACP at different administrated frequency and dose every day (see Table 2). Blood was collected from 10 subjects at Day 8, 15, 22, and 28 for routine blood test.

[3] abbreviates: subject GBYI, Day 0 count 4.3, once a day, total daily dose 15 mg.
Where [4] appears, read: subject LXJV, Day 0 count 2.7, three times a day, total daily dose 30 mg.
Where [5] appears, read: chemotherapy control group, CTX 150/100 mg/kg ip, reference = 100%.

Like-named read-outs stand apart in the source and are kept apart here. Marks after values point to notes of the source that are not given here.

On to `C#C[C@@]1(OC(C)=O)C[C@@H]2CC[C@@H]3[C@H](CC[C@@]4(C)[C@H]3CC[C@]4(C#C)OC(C)=O)[C@@]2(C)C1` [ACP1, 2α,17α-diethynyl-A-decarbonized-5α-androstane-2β,17β-dihydroxyl diacetate compound], for which, in data set [1] (mouse, in vivo, 5 mg/kg), the “Day 8 (10^3 WBC/μl)” value was 4.21 ± 1.22 10^3 WBC/μl, the “Day 8 (%)” value was determined as 1027%*, the “Day 12 (10^3 WBC/μl)” value is reported as 4.32 ± 1.29 10^3 WBC/μl and the “Day 12 (%)” value is 292%*. Also, the “Effect of increasing WBC (C1/Czs)” value in data set [2] (Day 8) was 146%. Moreover, the “extent of increasing white blood cells (Cl/Czs-100%)” value in data set [2] (Day 8, compared with before treatment) is on record as “about 50%”. Also, in data set [2] (Day 15), the “Effect of increasing WBC (C1/Czs)” value came to 180% and the “average extent of increasing white blood cells” value is listed as “about 80%”. The “maximum extent of increasing white blood cells” value in data set [2] (Day 15, maximum among subjects) is recorded as “about 178%”. Besides, in data set [2] (Day 22), the “extent of increasing white blood cells” value was “about 63%” and the “Effect of increasing WBC (C1/Czs)” value is recorded as 163%. In addition, in data set [2] (Day 28), the “Effect of increasing WBC (C1/Czs)” value is reported as 149% and the “average extent of increasing white blood cells” value was “about 50%”. In data set [2] (setting [3]), the “WBC count during administration, Day 8” value is 5.8 10^9/L; the “WBC count during administration, Day 15” value is on record as 6.9 10^9/L; the “WBC count during administration, Day 22” value is reported as 6.3 10^9/L; the “WBC count during administration, Day 28” value is listed as 7.0 10^9/L. In addition, in data set [2] (setting [4]), the “WBC count during administration, Day 8” value is 5.9 10^9/L; the “WBC count during administration, Day 15” value is listed as 7.5 10^9/L; the “WBC count during administration, Day 22” value is 6.0 10^9/L; the “WBC count during administration, Day 28” value was 6.1 10^9/L.
Turning to `O=P1(N(CCCl)CCCl)NCCCO1` (centres unmarked) [CTX, cyclophosphamide], the “effect on white blood cells of peripheral blood in mice” value in data set [1] (chemotherapy control group) was “caused a decrease of white blood cells of peripheral blood in mice”. The “Day 8 (10^3 WBC/μl)” value in data set [1] (chemotherapy control group, CTX 150/100 mg/kg ip, 8th day after last CTX) is 0.41 ± 0.07 10^3 WBC/μl. In addition, the “Day 12 (10^3 WBC/μl)” value in data set [1] (chemotherapy control group, CTX 150/100 mg/kg ip, 12th day after last CTX) is on record as 1.48 ± 0.37 10^3 WBC/μl. In data set [1] (setting [5]), the “Day 8 (%)” value was 100% and the “Day 12 (%)” value was 100%.
